Data from US20250186416A1, “SMOKING CESSATION COMPOUNDS HAVING REDUCED NITROSAMINES AND ASSOCIATED METHODS” (Achieve Life Sciences, Inc., priority 2023, published 2025).
Where two headings read alike, the source gives them in different places.

Legend:
[1] = cited from earlier work

O=C1O[C@H]([C@@H](O)CO)C(O)=C1O [ascorbic acid]
reported pH of ascorbic acid in water ([1]; 5 mg/ml): 3
reported pH of ascorbic acid in water ([1]; 50 mg/ml): 2

O=c1cccc2n1C[C@@H]1CNC[C@H]2C1 [drug substance (API), cytisine]
NNC equivalent in the standard tablet formulation (equivalent of 152 ppb in API): approximately 0.46 ng/tablet
highest level of NNC observed in representative batches of drug substance (API) (storage about 10 months to about 8 years after manufacture): 152 ppb
